Assay results reported in US11464750B2, “Anticancer agent and use thereof” (priority 2017, dated 2022).

Key:
p-Akt (Ser^473) = experiment: Western blotting, p-Akt, Panc-1 cells; format: cell-based, human; conditions: 3 μM
Method: Specifically, first, JeKo-1 cells were cultured for 0 (control), 12, 24, and 48 hours in the presence of 0.5 μM of 3EZ,20Ac-ingenol. In addition, Panc-1 cells were cultured for 0 (control), 12, 24, and 48 hours in the presence of 3 μM of 3EZ,20Ac-ingenol.
Subsequently, by Western blotting using an anti-Akt antibody (Cell Signaling Technology) and an anti-p-Akt (Ser^473) antibody (Cell Signaling Technology), abundances of total amounts of Akt protein and p-Akt in the entire cell fractions, nuclear fractions, and cytoplasm fractions of the respective cells were analyzed. Furthermore, as a loading control, actin protein was detected using an anti-actin antibody (Sigma).

[1] = test system: phosphorylated Akt (Ser^473); experiment: Western blotting, p-Akt (Ser473), TKG0377 cells; format: cell-based, human; conditions: 0.5 μM
Method: The effect of 3EZ,20Ac-ingenol treatment on a PI3K/Akt signaling pathway was examined. Specifically, BALL-1 cells, TKG0210 cells, and TKG0377 cells were cultured for 48 hours in the presence of 3EZ,20Ac-ingenol at a final concentration of 0.5 μM, and by Western blotting using an anti-p-Akt (Ser^473) antibody (Cell Signaling Technology), phosphorylation of the 473th serine residue of an Akt protein in respective fractions of the entire cell, a nucleus, and a cytoplasm was analyzed. In addition, cells cultured in the absence of 3EZ,20Ac-ingenol were used as controls.
BALL-1 cells, TKG0210 cells, and TKG0377 cells were cultured for 24 and 48 hours in the presence of 3EZ,20Ac-ingenol at a final concentration of 0.5 μM, and abundances of p-Akt in the nuclear fraction and the cytoplasm fraction were analyzed by Western blotting. In addition, respective cells cultured in the absence of 3FZ,20Ac-ingenol were used as controls.

## CCCCC/C=C\C=C\C(=O)O[C@H]1C(C)=C[C@]23C(=O)[C@@H](C=C(COC(C)=O)[C@@H](O)[C@]12O)[C@H]1[C@@H](C[C@H]3C)C1(C)C [3EZ,20Ac-ingenol, 3-O-(2′E,4′Z-decadienoyl)-20-O-acetylingenol]
p-Akt (Ser^473); entire cell fraction, 12 hours and 24 hours
  abundance of p-Akt: a temporary increase in abundances of both p-Akt and total amount of Akt was recognized
p-Akt (Ser^473); entire cell fraction, 48 hours
  abundance of p-Akt: a decrease was observed again
p-Akt (Ser^473); nuclear fraction and cytoplasm fraction, 12 to 24 hours
  abundance of p-Akt: an increase in abundance of both p-Akt and total amount of Akt was recognized
p-Akt (Ser^473); nuclear fraction and cytoplasm fraction, 48 hours
  abundance of p-Akt: a decrease was observed 48 hours after the treatment
[1]; 24 and 48 hours, cytoplasm fraction and nuclear fraction
  abundance of p-Akt: no decrease in abundance of p-Akt was observed
[1]; 48 hours, cytoplasm fraction
  abundance of p-Akt: remained almost unchanged
[1]; 48 hours, nuclear fraction
  abundance of p-Akt: increased
